The text below walks through data of patent US20240228490A1, “HETEROCYCLIC DERIVATIVE INHIBITOR AND PREPARATION METHOD THEREFOR AND APPLICATION THEREOF” (Shanghai Hansoh Biomedical Co., Ltd., priority 2021, published 2024).

A value given as a limit tells only on which side of the number the result lay.

One may read the Papp A→B as the apparent permeability from the apical to the basolateral side of a cell layer. A higher Papp A→B goes with fast passage. What is called Papp B→A is how fast a substance crosses the layer from the basolateral side. The term IC50 denotes the concentration needed to halve the response being measured. The term AUC(0-t) denotes the area under the concentration-time curve up to a stated or last time point. Lower therefore signals less exposure. By Cmax is commonly meant the maximum level reached in the sampled fluid or tissue. The Tmax is the time at which the peak concentration occurs. Broadly, the half-life is how long it takes for the measured level to halve. The low end stands for rapid decline, the high end for slow decline.

Series [1] in a line: Bidirectional permeability through Caco-2 cell model. Conditions: human. (Caco-2 cells form a polarised layer with tight junctions and transporters.)
Description: 100 μL of transport buffer (HBSS containing 10 μM test compound, 0.5% BSA, and 0.5% DMSO) was added to the administration end of A to B • b. 300 μL of transport buffer (HBSS containing 0.5% BSA) was added to the receiving end of A to B • c. 300 μL of transport buffer (HBSS containing 10 μM test compound, 0.5% BSA, and 0.5% DMSO) was added to the administration end of B to A • d. 100 μL of transport buffer (HBSS containing 0.5% BSA) was added to the receiving end of B to A • e. Incubation for 2 hours • d. Samples were taken, processed and detected by mass spectrometry.
• Instrument: liquid chromatography; • Chromatographic column: Waters XSelect HSS T3 C18 (2.1*50 mm, 2.5 μm); • Mobile phase: phase A: water containing 0.1% formic acid; phase B: acetonitrile containing 0.1% formic acid.
• Instrument: API4000 liquid chromatography-mass spectrometer; • Ion source: electrospray ionization source (ESI); • Detection method: positive ion detection; • Scan mode: multiple reaction monitoring (MRM) mode.
Series [2] deals with BRCA2 Knockout DLD-1 cells. Put plainly: Inhibition of proliferation of BRCA2 Knockout DLD-1 cells (CellTiter-Glo). The format is cell-based. The settings on record: Homo sapiens, about 144 hours incubation. Here is the method: BRCA2 Knockout DLD-1 cells were cultured using RPMI1640 culture medium containing 10% FBS to an appropriate cell density. The cells were collected, and adjusted to an appropriate cell concentration using the complete culture medium. The cell suspension was spread on a 96-well plate (90 μL per well), and placed in a 37° C., 5% CO2 incubator overnight. Compound solutions of different concentrations were formulated using DMSO and culture medium, and vehicle control was set up. The compound solutions were added to the 96-well plate (10 μL per well), and the plate was incubated in a 37° C., 5% CO2 incubator for about 144 hours. CellTiter-Glo solution was added, and the plate was shaken to mix evenly, and incubated in the dark for 10 to 30 minutes. The values were measured with a Synergy H1 or Envision microplate reader.
The inhibition rate was calculated using the luminescence signal value. The concentration and inhibition rate were fitted to a nonlinear regression curve using Graphpad Prism software to obtain the IC50 value.

In series [3] the test system is human colorectal cancer cell line DLD-1 BRCA2−/− subcutaneous xenograft tumor. The series can be described thus: In vivo pharmacodynamic study in DLD-1 BRCA2−/− subcutaneous xenograft tumor model. Conditions: oral, once/day, 21 days.
Description: BALB/c nude mice, 6 to 8 weeks old, 9, purchased from the Experimental Animal Management Department of Shanghai Institute of Family Planning
The recovered cells were plated in a cell culture flask (the cell type, date, name of the experimenter and the like were labeled on the wall of the flask), and cultured in a CO2 incubator (the temperature was 37° C. and the CO2 concentration was 5% in the incubator). • b. Cells were passaged once every three days. After passage, the cells continued to be cultured in the CO2 incubator. This process was repeated until the number of cells was sufficient for the in vivo efficacy test. • c. The cultured cells were collected, and counted with an automatic cell counter. According to the counting results, the cells were resuspended with PBS to obtain a cell suspension (density: 5×10^7/mL), which was placed in an ice box for later use.
The nude mice were labeled with disposable universal ear tags for rats and mice before inoculation. • b. During the inoculation, the cell suspension was mixed well. 0.1 to 1 mL of the cell suspension was drawn with a 1 mL syringe, air bubbles were removed, and then the syringe was placed on an ice pack for later use. • c. The nude mouse was bound with the left hand. The position on the right side of the back close to the right shoulder of the nude mouse (inoculation site) was disinfected with 75% alcohol. Inoculation started after 30 seconds. • d. The test nude mice were successively inoculated (each mouse was inoculated with 0.1 mL of cell suspension).
According to the tumor growth, the tumor was measured on 10 to 18 days after the inoculation, and the tumor size was calculated.
Calculation of tumor volume: tumor volume (mm^3)=length (mm)×width (mm)×width (mm)/2 • b. The tumor-bearing mice were grouped according to their body weight and tumor size by random grouping. • c. […] Tumors were measured and the mice were weighed twice a week after the administration of test compounds began. • e. Animals were euthanized at the end of the experiment. • f. Data were processed by using softwares such as Excel.
Series [4] concerns PAR in tumor tissue. The series can be described thus: PD part of PK/PD study in MDA-MB-436 subcutaneous xenograft model: inhibition of PAR in tumor tissue (Western blot). Format: in vivo, BALB/c nude mice. The settings on record: within 24 hours after a single administration, MDA-MB-436 model. The protocol: • a. Grouping: According to the growth of the tumor, when the tumor grew to a volume of 300-500 mm^3, tumor-bearing mice were selected according to the experimental design and randomly grouped (3 mice per each time point) to start the PK/PD test. • b. Fasting: All tumor-bearing mice were fasted (with free access to water) overnight (fasting >8 hours) before the administration. • c. Administration: Except for the blank control group, a single oral administration was carried out according to the time of the experimental design, and the administration volume was 10 mL/kg. • d. Sample collection: The mice were euthanized by CO2 asphyxiation according to the time of the experimental design, and the samples were collected. One plasma sample and three tumor tissue samples were collected from each animal.
Tumor tissue collection: After the blood collection, the tumor tissue was collected. The collected tumor tissue was divided into 3 aliquots (˜0.1 g each), placed into labeled 2 mL centrifuge tubes, and stored in a refrigerator at −80±10° C. for PK or PD test.
1 mL of tumor lysis solution was added to each tube of tumor tissue sample, followed by the addition of steel beads. […]
Protein quantification was performed by BCA protein quantification kit. […]
c. […] PAR was subjected to fluorescence imaging, and Gapdh internal control was subjected to fluorescence imaging using IRDye 800 CW channel.
(Immunoblotting shows a protein as a band on a membrane.)

Series [5] is described as follows: Pharmacokinetic assay in Balb/C mice. The settings on record: male, mouse, plasma, po, 1 mg/kg.
Description: Balb/C mice were used as test animals.
Male Balb/C mice (6 mice per example), purchased from Shanghai Jiesijie Laboratory Animal Co., LTD, with Certificate No.: SCXK (Shanghai) 2013-0006 N0.311620400001794.
5 g of hydroxyethyl cellulose (HEC, CMC-Na, viscosity: 800-1200 Cps) was weighed and dissolved in 1000 mL of purified water, followed by the addition of 10 g of Tween 80. The mixture was mixed well to obtain a clear solution.
2.05 mg of the compound was weighed and dissolved in the solution. The mixture was shaken well, crushed in a cell crusher for 1 minute, and sonicated for 15 minutes to obtain a suspension with a concentration of 0.1 mg/mL.
After an overnight fast, male Balb/C mice were administered p.o. with the test compound at a dose of 1 mg/kg and a volume of 10 mL/kg.
0.04 mL of blood was taken from the orbit of the mouse at 0, 0.5, 1, 2, 4, 6, 8 and 24 hours after the administration. The samples were stored in EDTA-K2 tubes, and centrifuged for 6 minutes at 4° C., 6000 rpm to separate the plasma. The plasma samples were stored at −80° C. The mouse was fed 4 hours after the administration.
• Liquid chromatography condition: Shimadzu LC-20AD pump • Mass spectrometry condition: AB Sciex API 4000 mass spectrometer • Chromatographic column: phenomenex Gemiu 5 μm C18 50×4.6 mm • Mobile phase: Eluent A was 0.1% formic acid in water, and Eluent B was acetonitrile • Flow rate: 0.8 mL/min • Elution time: 0-4.0 minutes, the eluent is as follows:
The main parameters of pharmacokinetics were calculated by WinNonlin 8.2.
The target in series [6] is PARP1 enzyme (Homo sapiens (Human), UniProt P09874). Put plainly: Inhibitory activity on PARP1 enzyme (chemiluminescence). The format is biochemical.
Chain of PARP1 enzyme (P09874 whole entry): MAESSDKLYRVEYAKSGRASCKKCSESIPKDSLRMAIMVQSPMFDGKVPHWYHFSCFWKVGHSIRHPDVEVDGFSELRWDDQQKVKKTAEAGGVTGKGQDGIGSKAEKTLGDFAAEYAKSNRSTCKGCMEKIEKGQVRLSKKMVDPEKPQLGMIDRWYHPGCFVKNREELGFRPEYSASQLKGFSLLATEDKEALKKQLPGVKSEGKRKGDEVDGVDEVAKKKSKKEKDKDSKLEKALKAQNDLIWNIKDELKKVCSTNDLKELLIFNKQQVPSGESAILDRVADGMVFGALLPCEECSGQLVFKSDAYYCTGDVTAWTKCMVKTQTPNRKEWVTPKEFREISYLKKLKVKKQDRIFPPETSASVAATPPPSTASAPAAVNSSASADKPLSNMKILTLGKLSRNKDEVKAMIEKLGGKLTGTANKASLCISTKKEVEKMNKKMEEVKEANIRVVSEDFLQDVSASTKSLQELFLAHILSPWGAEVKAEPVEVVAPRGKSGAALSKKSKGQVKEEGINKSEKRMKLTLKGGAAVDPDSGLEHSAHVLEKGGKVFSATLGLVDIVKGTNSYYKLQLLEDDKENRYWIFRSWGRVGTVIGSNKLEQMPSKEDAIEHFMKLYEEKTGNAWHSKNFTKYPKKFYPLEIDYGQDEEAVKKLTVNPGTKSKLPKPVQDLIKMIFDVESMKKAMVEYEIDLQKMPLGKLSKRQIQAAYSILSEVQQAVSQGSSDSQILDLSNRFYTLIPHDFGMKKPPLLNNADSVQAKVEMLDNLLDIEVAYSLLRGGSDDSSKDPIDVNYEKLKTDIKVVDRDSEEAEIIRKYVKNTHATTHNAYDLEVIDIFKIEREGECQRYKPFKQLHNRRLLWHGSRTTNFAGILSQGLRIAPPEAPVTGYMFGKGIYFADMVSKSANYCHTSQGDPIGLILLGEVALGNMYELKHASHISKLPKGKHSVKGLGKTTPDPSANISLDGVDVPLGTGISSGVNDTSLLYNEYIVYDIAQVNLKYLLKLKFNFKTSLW

In series [1], `CCc1cc2ncc(CN3CC=C(c4ccc(C(=O)NC)nc4)CC3)cc2[nH]c1=O` [Example 1, 1′-((7-Ethyl-6-oxo-5,6-dihydro-1,5-naphthyridin-3-yl)methyl)-N-methyl-1′,2′,3′,6′-tetrahydro-[3,4′-bipyridine]-6-carboxamide] gave a Papp A→B at 2 h, 10 μM of 12.8 ×10⁻⁶ cm/s and a Papp B→A at 2 h, 10 μM of 19.2 ×10⁻⁶ cm/s. Besides, in series [2], the IC50 was determined as 1.2 nM. Moreover, in series [3], the “Animal's body weight” value is “no significant decrease” and the “Tumor growth inhibition rate TGI (%)” value was above 90%. Moreover, the “Inhibition of intratumoral PAR compared with AZD5305” value in series [4] is listed as “comparable”. Besides, in series [5], the AUC(0-t) amounted to 119 µg·h/mL, the Cmax turned out to be 9930 ng/mL, the Tmax came out at 1 h and the half-life was 6.9 h. For the same compound, the IC50 in series [6] came out at 0.93 nM.
